Source: the AptaBench aptamer set (doi:10.1093/nar/gkaf219)

Tested on: DNA aptamer or structured DNA CTTACGACACAGGGCGTGGAGTGGCTGGGCTTCAAGGGGTCGTAAG
Conditions: 10 mM Tris-HCl, pH 7.4
For binding call in this document: call rule not given here.

Row | Compound | binding call | Kd [µM]
1 | COc1ccc2c3c1O[C@H]1C(=O)CC[C@@]4(O)[C@@H](C2)N(C)CC[C@]314 | no binding | –
2 | COC(=O)[C@@H]1C2CCC(C[C@@H]1OC(=O)c1ccccc1)N2C (stereo not given in full) | – | 0.123

Tested on: DNA aptamer or structured DNA CTTACGACCGGCGGAAGGCTGGAGGGGTTGGGGGAGGTGTCGTAAG
Conditions: 10 mM Tris-HCl, pH 7.4

Row | Compound | binding call
3 | CCN(CC)CC(=O)Nc1c(C)cccc1C | no binding
4 | C=C[C@H]1CN2CC[C@@H]1C[C@H]2[C@H](O)c1ccnc2ccc(OC)cc12 | no binding
5 | COC(=O)[C@@H]1C2CCC(C[C@@H]1OC(=O)c1ccccc1)N2C (stereo not given in full) | binds
6 | CC(=O)Nc1ccc(O)cc1 | no binding

Tested on: DNA aptamer or structured DNA CTTACGACTAGTTCGGATAAGGGGTAGGTGTGGTTGTGGTCGTAAG
Conditions: 10 mM Tris-HCl, pH 7.4

Row | Compound | binding call | Kd [µM]
7 | NCCc1c[nH]c2ccc(O)cc12 | binds | –
8 | c1ccc([C@H]2CN3CCSC3=N2)cc1 | no binding | –
9 | C=C[C@H]1CN2CC[C@@H]1C[C@H]2[C@H](O)c1ccnc2ccc(OC)cc12 | no binding | –
10 | COc1ccc2c3c1O[C@H]1C(=O)CC[C@@]4(O)[C@@H](C2)N(C)CC[C@]314 | no binding | –
11 | COC(=O)[C@@H]1C2CCC(C[C@@H]1OC(=O)c1ccccc1)N2C (stereo not given in full) | – | 0.192
12 | CC(=O)Nc1ccc(O)cc1 | no binding | –

Tested on: DNA aptamer or structured DNA CTTACGACTAGTTCCGGGTAGGGGTAGGTGTGGTTGTGGTCGTAAG
Conditions: 10 mM Tris-HCl, pH 7.4

Row | Compound | binding call | Kd [µM]
13 | NCCc1c[nH]c2ccc(O)cc12 | binds | –
14 | c1ccc([C@H]2CN3CCSC3=N2)cc1 | binds | –
15 | CCN(CC)CC(=O)Nc1c(C)cccc1C | no binding | –
16 | C=C[C@H]1CN2CC[C@@H]1C[C@H]2[C@H](O)c1ccnc2ccc(OC)cc12 | no binding | –
17 | COc1ccc2c3c1O[C@H]1C(=O)CC[C@@]4(O)[C@@H](C2)N(C)CC[C@]314 | no binding | –
18 | COC(=O)[C@@H]1C2CCC(C[C@@H]1OC(=O)c1ccccc1)N2C (stereo not given in full) | – | 0.061
19 | CC(=O)Nc1ccc(O)cc1 | no binding | –

Tested on: DNA aptamer or structured DNA CTTACGACGCGGACGTTGTGGGGCGTGGCAGTCGGTGGGTCGTAAG
Conditions: 10 mM Tris-HCl, pH 7.4

Row | Compound | binding call | Kd [µM]
20 | NCCc1c[nH]c2ccc(O)cc12 | no binding | –
21 | c1ccc([C@H]2CN3CCSC3=N2)cc1 | no binding | –
22 | CCN(CC)CC(=O)Nc1c(C)cccc1C | no binding | –
23 | C=C[C@H]1CN2CC[C@@H]1C[C@H]2[C@H](O)c1ccnc2ccc(OC)cc12 | no binding | –
24 | COc1ccc2c3c1O[C@H]1C(=O)CC[C@@]4(O)[C@@H](C2)N(C)CC[C@]314 | no binding | –
25 | COC(=O)[C@@H]1C2CCC(C[C@@H]1OC(=O)c1ccccc1)N2C (stereo not given in full) | – | 0.372
26 | CC(=O)Nc1ccc(O)cc1 | no binding | –

Tested on: DNA aptamer or structured DNA CTTACGACGACCTAGTGGGGGTAGTTATAGTTGGGTGAGTCGTAAG
Conditions: 10 mM Tris-HCl, pH 7.4

Row | Compound | binding call
27 | c1ccc([C@H]2CN3CCSC3=N2)cc1 | no binding
28 | COc1ccc2c3c1O[C@H]1C(=O)CC[C@@]4(O)[C@@H](C2)N(C)CC[C@]314 | no binding
29 | CC(=O)Nc1ccc(O)cc1 | no binding

Tested on: DNA aptamer or structured DNA CTTACGACGCGGACGTTGTGGGGCGTGGCAGTCGGTGAGTCGTAAG
Conditions: 10 mM Tris-HCl, pH 7.4

Row | Compound | binding call | Kd [µM]
30 | NCCc1c[nH]c2ccc(O)cc12 | no binding | –
31 | COc1ccc2c3c1O[C@H]1C(=O)CC[C@@]4(O)[C@@H](C2)N(C)CC[C@]314 | no binding | –
32 | COC(=O)[C@@H]1C2CCC(C[C@@H]1OC(=O)c1ccccc1)N2C (stereo not given in full) | – | 1.03
33 | CC(=O)Nc1ccc(O)cc1 | no binding | –

Tested on: DNA aptamer or structured DNA GGGACGACGGTTGGCATTGGGTCGGGTGTGGGGGCGGCGTCGTCCC
Conditions: 10 mM Tris-HCl, pH 7.4

Row | Compound | binding call
34 | CCN(CC)CC(=O)Nc1c(C)cccc1C | no binding
35 | C=C[C@H]1CN2CC[C@@H]1C[C@H]2[C@H](O)c1ccnc2ccc(OC)cc12 | no binding
36 | COc1ccc2c3c1O[C@H]1C(=O)CC[C@@]4(O)[C@@H](C2)N(C)CC[C@]314 | no binding

Tested on: DNA aptamer or structured DNA CTTACGACGGGGTGGGGGCGGCTTCCCATGGGAGGGGTGTCGTAAG
Conditions: 10 mM Tris-HCl, pH 7.4

Row | Compound | binding call
37 | CCN(CC)CC(=O)Nc1c(C)cccc1C | no binding
38 | C=C[C@H]1CN2CC[C@@H]1C[C@H]2[C@H](O)c1ccnc2ccc(OC)cc12 | binds
39 | COC(=O)[C@@H]1C2CCC(C[C@@H]1OC(=O)c1ccccc1)N2C (stereo not given in full) | no binding
40 | CC(=O)Nc1ccc(O)cc1 | no binding

Tested on: DNA aptamer or structured DNA TTCAAATCTGGCGCAGGTAGGGGTGTAGGTGTGGGGGTAAGTCTAGATTTGAA
Conditions: 10 mM Tris-HCl, pH 7.4

Row | Compound | binding call
41 | NCCc1c[nH]c2ccc(O)cc12 | no binding
42 | CCN(CC)CC(=O)Nc1c(C)cccc1C | no binding
43 | C=C[C@H]1CN2CC[C@@H]1C[C@H]2[C@H](O)c1ccnc2ccc(OC)cc12 | no binding
44 | COc1ccc2c3c1O[C@H]1C(=O)CC[C@@]4(O)[C@@H](C2)N(C)CC[C@]314 | no binding
45 | COC(=O)[C@@H]1C2CCC(C[C@@H]1OC(=O)c1ccccc1)N2C (stereo not given in full) | no binding

Tested on: DNA aptamer or structured DNA GGGACGACTAGCTGGTGCGTTGTCCGAAGTCATGAGTAGTCGTCCC
Conditions: 10 mM Tris-HCl, pH 7.4

Row | Compound | binding call
46 | c1ccc([C@H]2CN3CCSC3=N2)cc1 | no binding
47 | C=C[C@H]1CN2CC[C@@H]1C[C@H]2[C@H](O)c1ccnc2ccc(OC)cc12 | binds
48 | COC(=O)[C@@H]1C2CCC(C[C@@H]1OC(=O)c1ccccc1)N2C (stereo not given in full) | no binding

Tested on: DNA aptamer or structured DNA TTCAAATCTATGGTGCAGTGCGCAGGGACGGAGGTAAAACATGAGTTTTAGTCTAGATTTGAA
Conditions: 10 mM Tris-HCl, pH 7.4

Row | Compound | binding call
49 | NCCc1c[nH]c2ccc(O)cc12 | binds
50 | CCN(CC)CC(=O)Nc1c(C)cccc1C | no binding
51 | C=C[C@H]1CN2CC[C@@H]1C[C@H]2[C@H](O)c1ccnc2ccc(OC)cc12 | binds

Tested on: DNA aptamer or structured DNA GGGACGACGGCTTGCATTGAGCAGAAGGGGTACACGCTGTCGTCCC
Conditions: 10 mM Tris-HCl, pH 7.4

Row | Compound | binding call | Kd [µM]
52 | c1ccc([C@H]2CN3CCSC3=N2)cc1 | no binding | –
53 | CCN(CC)CC(=O)Nc1c(C)cccc1C | no binding | –
54 | C=C[C@H]1CN2CC[C@@H]1C[C@H]2[C@H](O)c1ccnc2ccc(OC)cc12 | binds | –
55 | COc1ccc2c3c1O[C@H]1C(=O)CC[C@@]4(O)[C@@H](C2)N(C)CC[C@]314 | – | 0.79
56 | COC(=O)[C@@H]1C2CCC(C[C@@H]1OC(=O)c1ccccc1)N2C (stereo not given in full) | no binding | –

Tested on: DNA aptamer or structured DNA CTTACGACAAGGGATGTGAGTTAGTGTGTCGGATCTATGTCGTAAG
Conditions: 10 mM Tris-HCl, pH 7.4

Row | Compound | binding call | Kd [µM]
57 | NCCc1c[nH]c2ccc(O)cc12 | no binding | –
58 | c1ccc([C@H]2CN3CCSC3=N2)cc1 | no binding | –
59 | CCN(CC)CC(=O)Nc1c(C)cccc1C | no binding | –
60 | C=C[C@H]1CN2CC[C@@H]1C[C@H]2[C@H](O)c1ccnc2ccc(OC)cc12 | no binding | –
61 | COc1ccc2c3c1O[C@H]1C(=O)CC[C@@]4(O)[C@@H](C2)N(C)CC[C@]314 | no binding | –
62 | COC(=O)[C@@H]1C2CCC(C[C@@H]1OC(=O)c1ccccc1)N2C (stereo not given in full) | – | 0.152
63 | CC(=O)Nc1ccc(O)cc1 | no binding | –

Tested on: DNA aptamer or structured DNA CTTACGACATGGGATGTGTAGTTAGTGGTCGGATCCGGGTCGTAAG
Conditions: 10 mM Tris-HCl, pH 7.4

Row | Compound | binding call | Kd [µM]
64 | NCCc1c[nH]c2ccc(O)cc12 | no binding | –
65 | c1ccc([C@H]2CN3CCSC3=N2)cc1 | no binding | –
66 | CCN(CC)CC(=O)Nc1c(C)cccc1C | no binding | –
67 | COc1ccc2c3c1O[C@H]1C(=O)CC[C@@]4(O)[C@@H](C2)N(C)CC[C@]314 | no binding | –
68 | COC(=O)[C@@H]1C2CCC(C[C@@H]1OC(=O)c1ccccc1)N2C (stereo not given in full) | – | 0.127
69 | CC(=O)Nc1ccc(O)cc1 | no binding | –

Tested on: DNA aptamer or structured DNA GGGACGACTAGGGCTTAGGGTTTAGGTGTGGGGTGTAAGTCGTCCC
Conditions: 10 mM Tris-HCl, pH 7.4

Row | Compound | binding call
70 | NCCc1c[nH]c2ccc(O)cc12 | no binding
71 | CCN(CC)CC(=O)Nc1c(C)cccc1C | no binding
72 | C=C[C@H]1CN2CC[C@@H]1C[C@H]2[C@H](O)c1ccnc2ccc(OC)cc12 | no binding
73 | COc1ccc2c3c1O[C@H]1C(=O)CC[C@@]4(O)[C@@H](C2)N(C)CC[C@]314 | no binding
74 | COC(=O)[C@@H]1C2CCC(C[C@@H]1OC(=O)c1ccccc1)N2C (stereo not given in full) | no binding

Tested on: DNA aptamer or structured DNA CTTACGACACTGGCAGGAGGGTCGGGTGTGGGAACGTGGTCGTAAG
Conditions: 10 mM Tris-HCl, pH 7.4

Row | Compound | binding call
75 | CCN(CC)CC(=O)Nc1c(C)cccc1C | no binding
76 | C=C[C@H]1CN2CC[C@@H]1C[C@H]2[C@H](O)c1ccnc2ccc(OC)cc12 | binds
77 | COC(=O)[C@@H]1C2CCC(C[C@@H]1OC(=O)c1ccccc1)N2C (stereo not given in full) | no binding
78 | CC(=O)Nc1ccc(O)cc1 | no binding

Tested on: DNA aptamer or structured DNA CTTACGACGGGGGTGTGGCTAGGGGTGGCGCGGGATCCGTCGTAAG
Conditions: 10 mM Tris-HCl, pH 7.4

Row | Compound | binding call | Kd [µM]
79 | NCCc1c[nH]c2ccc(O)cc12 | binds | –
80 | c1ccc([C@H]2CN3CCSC3=N2)cc1 | binds | –
81 | CCN(CC)CC(=O)Nc1c(C)cccc1C | no binding | –
82 | C=C[C@H]1CN2CC[C@@H]1C[C@H]2[C@H](O)c1ccnc2ccc(OC)cc12 | binds | –
83 | COc1ccc2c3c1O[C@H]1C(=O)CC[C@@]4(O)[C@@H](C2)N(C)CC[C@]314 | no binding | –
84 | COC(=O)[C@@H]1C2CCC(C[C@@H]1OC(=O)c1ccccc1)N2C (stereo not given in full) | – | 0.185
85 | CC(=O)Nc1ccc(O)cc1 | binds | –
